Measured values as given in a compilation of properties of binary mixtures (doi:10.1016/j.molliq.2017.03.036).

Test: xn = mol fraction of the nth substance listed
Settings: 101 kPa, x2 = 0

CN(CCO)CCO + CC(=O)[O-].CC[n+]1ccn(C)c1
Settings | electrical conductivity [S/m] | viscosity [mPa·s]
288.15 K | 0.0002 | 137.6
293.15 K | 0.0003 | 101.2
298.15 K | 0.0004 | 74.8
303.15 K | 0.0005 | 57.2
308.15 K | 0.0007 | 43
313.15 K | 0.0009 | 34.1
318.15 K | 0.0011 | 26.1
323.15 K | 0.0014 | 21.6
333.15 K | 0.0024 | 14.19
348.15 K | 0.0046 | 8.13
353.15 K | 0.0056 | 7.09
